# Reference: PubChem BioAssay AID1745844 (Carcinogenic Potency Database (CPDB), 2022)
# Activity calls are given as the source filed them. How the calls were made is not given here.
# Test system: rodent lifetime carcinogenesis bioassay, tumor incidence TD50
# Test: carcinogenic potency in animals, long-term in vivo studies, CPDB compilation (AID 1745844)
smiles,measurement,setting,value
C/C=C/C=O,TD50,"rat, strain Charles River, males, in drinking water, site: liver, lesion: neoplastic nodule, dosed 113 weeks, study length 113 weeks",4.2 mg/kg/day
same,TD50,"rat, strain Charles River, males, in drinking water, site: liver, lesion: several types, types named in the paper, dosed 113 weeks, study length 113 weeks",4.2 mg/kg/day
CC(=O)NNC(C)=O,carcinogen call,"mouse, strain Swiss, females, by gavage, site: lung, lesion: several types, types named in the paper, dosed 34 weeks, study length 95 weeks",negative (inactive)
same,carcinogen call,"mouse, strain Swiss, females, by gavage, site: lung, lesion: several types, types named in the paper, dosed 95 weeks, study length 95 weeks",negative (inactive)
same,TD50,"mouse, strain Swiss, males, by gavage, site: lung, lesion: several types, types named in the paper, dosed 34 weeks, study length 95 weeks",144 mg/kg/day (inactive)
same,TD50,"mouse, strain Swiss, males, by gavage, site: lung, lesion: several types, types named in the paper, dosed 95 weeks, study length 95 weeks",411 mg/kg/day (inactive)
CCC(CC)C(=O)NC(N)=O,TD50,"rat, strain Fischer 344, males, in feed, site: kidney, lesion: tubular-cell adenoma, dosed 71 weeks, study length 71 weeks",30.4 mg/kg/day
OC[P+](CO)(CO)CO,TD50,"mouse, strain B6C3F1, females, by gavage, site: any site (literature study), lesion: several types, types named in the paper, dosed 103 weeks, study length 104 weeks",908 mg/kg/day (inactive)
same,TD50,"mouse, strain B6C3F1, females, by gavage, site: liver, lesion: hepatocellular adenoma + hepatocellular carcinoma + neoplastic nodule, dosed 103 weeks, study length 104 weeks",200 mg/kg/day
same,TD50,"mouse, strain B6C3F1, females, by gavage, site: lung, lesion: alveolar/bronchiolar adenoma + alveolar/bronchiolar carcinoma, dosed 104 weeks, study length 105 weeks",234 mg/kg/day
same,TD50,"mouse, strain B6C3F1, females, by gavage, site: multiple organs, lesion: malignant lymphoma, mixed type, dosed 104 weeks, study length 105 weeks",15.7 mg/kg/day (inactive)
same,carcinogen call,"mouse, strain B6C3F1, males, by gavage, site: any site (literature study), lesion: several types, types named in the paper, dosed 103 weeks, study length 104 weeks",negative (inactive)
same,TD50,"mouse, strain B6C3F1, males, by gavage, site: any site (literature study), lesion: several types, types named in the paper, dosed 104 weeks, study length 105 weeks",47.3 mg/kg/day
same,TD50,"mouse, strain B6C3F1, males, by gavage, site: lung, lesion: alveolar/bronchiolar adenoma + alveolar/bronchiolar carcinoma, dosed 103 weeks, study length 104 weeks",103 mg/kg/day
same,TD50,"mouse, strain B6C3F1, males, by gavage, site: lung, lesion: alveolar/bronchiolar adenoma + alveolar/bronchiolar carcinoma, dosed 104 weeks, study length 105 weeks",78.5 mg/kg/day
same,TD50,"mouse, strain B6C3F1, males, by gavage, site: multiple organs, lesion: malignant lymphoma, histiocytic type + malignant lymphoma, mixed type + malignant lymphoma, lymphocytic type + malignant lymph, dosed 104 weeks, study length 105 weeks",11.4 mg/kg/day (inactive)
same,TD50,"rat, strain Fischer 344, females, by gavage, site: any site (literature study), lesion: several types, types named in the paper, dosed 103 weeks, study length 104 weeks",4.78 mg/kg/day (inactive)
same,TD50,"rat, strain Fischer 344, females, by gavage, site: any site (literature study), lesion: several types, types named in the paper, dosed 104 weeks, study length 106 weeks",23.3 mg/kg/day (inactive)
same,TD50,"rat, strain Fischer 344, males, by gavage, site: any site (literature study), lesion: several types, types named in the paper, dosed 103 weeks, study length 104 weeks",14.7 mg/kg/day
same,TD50,"rat, strain Fischer 344, males, by gavage, site: any site (literature study), lesion: several types, types named in the paper, dosed 104 weeks, study length 106 weeks",1.78 mg/kg/day
same,TD50,"rat, strain Fischer 344, males, by gavage, site: liver, lesion: hepatocellular adenoma + hepatocellular carcinoma + neoplastic nodule, dosed 103 weeks, study length 104 weeks",24.5 mg/kg/day
same,TD50,"rat, strain Fischer 344, males, by gavage, site: liver, lesion: hepatocellular adenoma + hepatocellular carcinoma + neoplastic nodule, dosed 104 weeks, study length 106 weeks",12.4 mg/kg/day
same,TD50,"rat, strain Fischer 344, males, by gavage, site: multiple organs, lesion: mononuclear-cell leukemia, dosed 104 weeks, study length 106 weeks",2.42 mg/kg/day (inactive)
same,TD50,"rat, strain Fischer 344, males, by gavage, site: pituitary gland, anterior, lesion: adenoma, NOS + carcinoma, NOS, dosed 104 weeks, study length 106 weeks",3.3 mg/kg/day
same,TD50,"rat, strain Fischer 344, males, by gavage, site: pituitary gland, anterior, lesion: adenoma, NOS, dosed 104 weeks, study length 106 weeks",3.56 mg/kg/day
same,TD50,"rat, strain Fischer 344, males, by gavage, site: subcutaneous tissue, lesion: fibroma, dosed 103 weeks, study length 104 weeks",24.9 mg/kg/day (inactive)
CCCC(Cl)CCCC(Cl)CCC(Cl)CCC(Cl)CCC(Cl)CCCC(Cl)CCC (configuration not stated),TD50,"mouse, strain B6C3F1, females, by gavage, site: Harderian gland, lesion: adenoma, NOS, dosed 103 weeks, study length 104 weeks",347 mg/kg/day
same,TD50,"mouse, strain B6C3F1, females, by gavage, site: liver + thyroid gland, lesion: hepatocellular adenoma + hepatocellular carcinoma + follicular-cell adenoma + follicular-cell carcinoma, dosed 103 weeks, study length 104 weeks",86.8 mg/kg/day
same,TD50,"mouse, strain B6C3F1, females, by gavage, site: lung, lesion: alveolar/bronchiolar adenoma + alveolar/bronchiolar carcinoma, dosed 103 weeks, study length 104 weeks",1.22e+06 mg/kg/day
same,TD50,"mouse, strain B6C3F1, females, by gavage, site: multiple organs, lesion: malignant lymphoma, lymphocytic type, dosed 103 weeks, study length 104 weeks",599 mg/kg/day
same,TD50,"mouse, strain B6C3F1, females, by gavage, site: thyroid gland, lesion: follicular-cell adenoma + follicular-cell carcinoma, dosed 103 weeks, study length 104 weeks",307 mg/kg/day
same,TD50,"mouse, strain B6C3F1, females, by gavage, site: thyroid gland, lesion: follicular-cell adenoma, dosed 103 weeks, study length 104 weeks",372 mg/kg/day
same,TD50,"mouse, strain B6C3F1, males, by gavage, site: liver + mesenteric lymph node + multiple organs + small intestine + spleen, lesion: malignant lymphoma, NOS + malignant lymphoma, mixed type + malignant lymphoma, lymphocytic type + malignant lymphoma, histiocy, dosed 103 weeks, study length 104 weeks",6540 mg/kg/day
same,TD50,"mouse, strain B6C3F1, males, by gavage, site: liver, lesion: hepatocellular adenoma + hepatocellular carcinoma, dosed 103 weeks, study length 104 weeks",143 mg/kg/day
same,TD50,"mouse, strain B6C3F1, males, by gavage, site: liver, lesion: hepatocellular adenoma, dosed 103 weeks, study length 104 weeks",157 mg/kg/day
same,TD50,"mouse, strain B6C3F1, males, by gavage, site: lung, lesion: alveolar/bronchiolar carcinoma, dosed 103 weeks, study length 104 weeks",606 mg/kg/day
same,TD50,"mouse, strain B6C3F1, males, by gavage, site: mesenteric lymph node + multiple organs + small intestine + spleen, lesion: malignant lymphoma, mixed type, dosed 103 weeks, study length 104 weeks",12100 mg/kg/day
same,TD50,"mouse, strain B6C3F1, males, by gavage, site: mesenteric lymph node + multiple organs, lesion: malignant lymphoma, lymphocytic type, dosed 103 weeks, study length 104 weeks",22900 mg/kg/day
same,TD50,"mouse, strain B6C3F1, males, by gavage, site: multiple organs, lesion: malignant lymphoma, histiocytic type, dosed 103 weeks, study length 104 weeks",43200 mg/kg/day
same,TD50,"mouse, strain B6C3F1, males, by gavage, site: thyroid gland, lesion: follicular-cell carcinoma, dosed 103 weeks, study length 104 weeks",44000 mg/kg/day
same,TD50,"rat, strain Fischer 344, females, by gavage, site: adrenal medulla, lesion: pheochromocytoma + pheochromocytoma, malignant, dosed 103 weeks, study length 105 weeks",2350 mg/kg/day
same,TD50,"rat, strain Fischer 344, females, by gavage, site: any site (literature study), lesion: several types, types named in the paper, dosed 104 weeks, study length 105 weeks",1100 mg/kg/day
same,TD50,"rat, strain Fischer 344, females, by gavage, site: liver + thyroid gland, lesion: hepatocellular carcinoma + neoplastic nodule + follicular-cell adenoma + follicular-cell carcinoma, dosed 104 weeks, study length 105 weeks",583 mg/kg/day
same,TD50,"rat, strain Fischer 344, females, by gavage, site: liver, lesion: hepatocellular adenoma + hepatocellular carcinoma + neoplastic nodule, dosed 103 weeks, study length 105 weeks",24800 mg/kg/day
same,TD50,"rat, strain Fischer 344, females, by gavage, site: liver, lesion: hepatocellular adenoma + hepatocellular carcinoma + neoplastic nodule, dosed 104 weeks, study length 105 weeks",1140 mg/kg/day
same,TD50,"rat, strain Fischer 344, females, by gavage, site: liver, lesion: hepatocellular carcinoma + neoplastic nodule, dosed 104 weeks, study length 105 weeks",1140 mg/kg/day
same,TD50,"rat, strain Fischer 344, females, by gavage, site: liver, lesion: neoplastic nodule, dosed 104 weeks, study length 105 weeks",1200 mg/kg/day
same,TD50,"rat, strain Fischer 344, females, by gavage, site: multiple organs, lesion: mononuclear-cell leukemia, dosed 104 weeks, study length 105 weeks",345 mg/kg/day
same,TD50,"rat, strain Fischer 344, females, by gavage, site: pancreas, lesion: acinar-cell adenoma, dosed 104 weeks, study length 105 weeks",839 mg/kg/day
same,TD50,"rat, strain Fischer 344, females, by gavage, site: thyroid gland, lesion: follicular-cell adenoma + follicular-cell carcinoma, dosed 104 weeks, study length 105 weeks",1160 mg/kg/day
same,TD50,"rat, strain Fischer 344, females, by gavage, site: thyroid gland, lesion: follicular-cell adenoma, dosed 104 weeks, study length 105 weeks",736 mg/kg/day
same,TD50,"rat, strain Fischer 344, females, by gavage, site: thyroid gland, lesion: follicular-cell carcinoma, dosed 104 weeks, study length 105 weeks",4060 mg/kg/day
same,TD50,"rat, strain Fischer 344, females, by gavage, site: uterus, lesion: endometrial stromal polyp + endometrial stromal sarcoma, dosed 104 weeks, study length 105 weeks",394 mg/kg/day
same,TD50,"rat, strain Fischer 344, males, by gavage, site: adrenal gland, lesion: pheochromocytoma + pheochromocytoma, malignant, dosed 104 weeks, study length 105 weeks",192 mg/kg/day
same,TD50,"rat, strain Fischer 344, males, by gavage, site: any site (literature study), lesion: several types, types named in the paper, dosed 104 weeks, study length 105 weeks",75.7 mg/kg/day
same,TD50,"rat, strain Fischer 344, males, by gavage, site: kidney + liver, lesion: tubular-cell adenoma + tubular-cell adenocarcinoma + hepatocellular carcinoma + neoplastic nodule, dosed 104 weeks, study length 105 weeks",110 mg/kg/day
same,TD50,"rat, strain Fischer 344, males, by gavage, site: kidney, lesion: tubular-cell adenoma + tubular-cell adenocarcinoma, dosed 104 weeks, study length 105 weeks",196 mg/kg/day
same,TD50,"rat, strain Fischer 344, males, by gavage, site: kidney, lesion: tubular-cell adenoma, dosed 104 weeks, study length 105 weeks",417 mg/kg/day
same,TD50,"rat, strain Fischer 344, males, by gavage, site: liver, lesion: hepatocellular adenoma + hepatocellular carcinoma + neoplastic nodule, dosed 103 weeks, study length 105 weeks",14500 mg/kg/day
same,TD50,"rat, strain Fischer 344, males, by gavage, site: liver, lesion: hepatocellular adenoma + hepatocellular carcinoma + neoplastic nodule, dosed 104 weeks, study length 105 weeks",123 mg/kg/day
same,TD50,"rat, strain Fischer 344, males, by gavage, site: liver, lesion: hepatocellular carcinoma + neoplastic nodule, dosed 104 weeks, study length 105 weeks",123 mg/kg/day
same,TD50,"rat, strain Fischer 344, males, by gavage, site: liver, lesion: hepatocellular carcinoma, dosed 104 weeks, study length 105 weeks",551 mg/kg/day
same,TD50,"rat, strain Fischer 344, males, by gavage, site: liver, lesion: neoplastic nodule, dosed 103 weeks, study length 105 weeks",14500 mg/kg/day (inactive)
same,TD50,"rat, strain Fischer 344, males, by gavage, site: liver, lesion: neoplastic nodule, dosed 104 weeks, study length 105 weeks",173 mg/kg/day
same,TD50,"rat, strain Fischer 344, males, by gavage, site: mammary gland, lesion: fibroadenoma, dosed 104 weeks, study length 105 weeks",566 mg/kg/day
same,TD50,"rat, strain Fischer 344, males, by gavage, site: multiple organs + spleen, lesion: mononuclear-cell leukemia, dosed 104 weeks, study length 105 weeks",406 mg/kg/day
same,TD50,"rat, strain Fischer 344, males, by gavage, site: pancreas, lesion: acinar-cell adenoma, dosed 104 weeks, study length 105 weeks",150 mg/kg/day
same,TD50,"rat, strain Fischer 344, males, by gavage, site: pancreas, lesion: acinar-cell carcinoma + acinar-cell adenoma, dosed 104 weeks, study length 105 weeks",144 mg/kg/day
same,TD50,"rat, strain Fischer 344, males, by gavage, site: pancreatic islets, lesion: islet-cell adenoma, dosed 103 weeks, study length 105 weeks",17600 mg/kg/day
same,TD50,"rat, strain Fischer 344, males, by gavage, site: preputial gland, lesion: adenoma, NOS + carcinoma, NOS, dosed 104 weeks, study length 105 weeks",522 mg/kg/day
same,TD50,"rat, strain Fischer 344, males, by gavage, site: preputial gland, lesion: adenoma, NOS, dosed 104 weeks, study length 105 weeks",568 mg/kg/day
same,TD50,"rat, strain Fischer 344, males, by gavage, site: skin + subcutaneous tissue, lesion: fibroma, dosed 104 weeks, study length 105 weeks",332 mg/kg/day
same,TD50,"rat, strain Fischer 344, males, by gavage, site: testis, lesion: interstitial-cell tumor, dosed 104 weeks, study length 105 weeks",75.2 mg/kg/day
[N-]=[N+]=CC(=O)OC[C@H](N)C(=O)O,TD50,"rat, strain Wistar, both sexes, i.p., site: kidney, lesion: one or several types, types not named, dosed 26 weeks, study length 78 weeks",0.942 mg/kg/day
same,TD50,"rat, strain Wistar, both sexes, i.p., site: liver, lesion: one or several types, types not named, dosed 26 weeks, study length 78 weeks",3.02 mg/kg/day
same,TD50,"rat, strain Wistar, both sexes, i.p., site: pancreas, exocrine, lesion: carcinoma, dosed 26 weeks, study length 78 weeks",0.793 mg/kg/day
same,carcinogen call,"rat, strain Wistar, males, i.p., site: pancreas, lesion: one or several types, types not named, dosed 104 weeks, study length 104 weeks",negative (inactive)
